Laboratory results from US20250145608A1, “KRAS DEGRADING COMPOUNDS COMPRISING ANNULATED 2-AMINO-3-CYANO THIOPHENES” (Boehringer Ingelheim Int'l GmbH Corp., priority 2021, published 2025).

Tests used:
Format in all cases: cell-based
KRAS(G12D) = target: T1, KRAS(G12D) (Homo sapiens, UniProt P01116, G12D); assay: HiBit degradation assay in GP5d-HiBit-KRAS(G12D) cells (18 h; DC50, Dmax)
T1 construct: introduced immediately downstream of the initiating Methionine codon of the endogenous KRAS locus; host or cells: GP5d-HiBit-KRAS(G12D), a CRISPR knock-in at the endogenous locus
T1 sequence (P01116 1-188 isoform P01116-2 G12D): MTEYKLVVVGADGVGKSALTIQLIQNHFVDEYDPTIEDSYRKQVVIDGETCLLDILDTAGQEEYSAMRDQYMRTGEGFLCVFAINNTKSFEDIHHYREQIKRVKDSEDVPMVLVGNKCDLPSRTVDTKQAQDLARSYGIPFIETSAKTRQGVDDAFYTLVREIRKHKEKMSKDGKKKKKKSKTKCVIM
Description: A HiBit protein detection tag (amino acid sequence […], Seq ID No 1) was introduced immediately downstream of the initiating Methionine codon of the endogenous KRAS locus (Ensembl gene ID ENSG00000133703.7) of GP5d cells (ECACC Cat. No. 95090715) by CRISPR-based genome engineering using a KRAS(G12D) mutant donor construct encoding the HiBit tag. […] Correct modification of the KRAS locus was assessed by PCR-based genotyping and Sanger sequencing of the isolated PCR products. The resulting cell line is referred to as GP5d-HiBit-KRAS(G12D).
To assess PROTAC-mediated degradation of KRAS(G12D), GP5d-HiBit-KRAS(G12D) cells were seeded at 25000 cells per well in 100 μL Dulbecco's Modified Eagle medium (Sigma cat. no. D6429) supplemented with 10% fetal calf serum into white bottom opaque 96 well plates (Perkin Elmer cat no. 5680). Plates were incubated at 37° C., 5% CO2 in a humidified incubator over night to allow the cells to adhere. […] Plates were further incubated at 37° C. for 18 hours. Following incubation, 100 μL per well Promega Nano-Glo HiBit lytic detection reagent mix (Promega Nano-Glo HiBit Lytic Detection System #N3050), prepared according to the manufacturer's instructions in the kit, were added. To allow for adequate cell lysis, plates were incubated on an orbital shaker for 15 min and further incubated 30 min at room temperature. Upon completion of cell lysis, luminescence was measured using an Envision plate reader using the Ultrasensitive Luminescence Protocol for 96 well plates. Luminescence levels were normalized by the values obtained with DMSO-treated samples and plotted as percent of DMSO control. DC50 values were computed using a four parametric logistic model. Dmax values represent the maximal extent of degradation observed and is stated as percent of control (% Ctrl.) treatments. DC50 and Dmax are reported in Table 64 for representative compounds of the invention.

NCI-H358 cells = assay: NCI-H358 CTG proliferation assay (120 h) (NSCLC, G12C); details: Homo sapiens, assay 2, read-out: H358 (assay 2) IC50
Description: NCI-H358 CTG Proliferation Assay (120 h) (NSCLC, G12C)
NCI-H358 cells (ATCC No. CRL-5807) are dispensed into white bottom opaque 96 well plates (Perkin Elmer cat no. 5680) at a density of 2000 cells per well in 100 μL RPMI-1640 ATCC-Formulation (Gibco #A10491)+10% FCS (fetal calf serum) (assay 1) or into black 384-well plates, flat and clear bottom (Greiner, PNr. 781091) at a density of 200 cells per well in 60 μl RPMI-1640 ATCC-Formulation (Gibco #A10491)+10% FCS (fetal calf serum) (assay 2). […] Compounds (10 mM stock in DMSO) are added at logarithmic dose series using the HP Digital Dispenser D300 (Tecan) (assay 1) or the ECHO acoustic liquid handler system (Beckman Coulter) (assay 2), normalizing for added DMSO and including DMSO controls. For the TO time point measurement, untreated cells are analyzed at the time of compound addition. Plates are incubated for 120 h, and cell viability is measured using CellTiter-Glo luminescent cell viability reagent (Promega product code G7570). Viability (stated as percent of control) is defined as relative luminescence units RLU of each well divided by the RLU of cells in DMSO controls. IC50 values are determined from viability measurements by non-linear regression using a four parameter model.

AsPC-1 cells = assay: AsPC-1 CTG proliferation assay (120 h) (pancreatic cancer, G12D); details: Homo sapiens, ASPC1, AsPC-1 proliferation
Description: AsPC-1 CTG Proliferation Assay (120 h) (Pancreatic Cancer, G12D)
The CTG assay is designed to measure quantitatively the proliferation of AsPC-1 cells (ATCC […]), using the CellTiter Glow Assay Kit (Promega G7571). Cells are grown in RPMI medium (ATCC) supplemented with Fetal Calf Serum (Life Technologies, Gibco BRL, Cat. No. 10270-106). On “day 0” 2000 AsPC-1 cells are seeded in 60 μL RPMI ATCC+10% FCS+ Penstrep in a 384-well plate, flat and clear bottom (Greiner, PNr. 781091). Cells are then incubated in the plates at 37° C. in a CO2 incubator overnight. On day 1, compounds (10 mM stock in DMSO) are added with the ECHO acoustic liquid handler system (Beckman Coulter), including DMSO controls. Plates are incubated for 120 h, and cell viability is measured using CellTiter-Glo luminescent cell viability reagent (Promega product code G7570). Viability (stated as percent of control) is defined as relative luminescence units RLU of each well divided by the RLU of cells in DMSO controls. IC50 values are determined from viability measurements by non-linear regression using a four-parameter model.

SAS cells = assay: SAS CTG proliferation assay (120 h) (HNSCC, wt amplified)
Description: SAS CTG Proliferation Assay (120 h) (HNSCC, Wt Amplified)
(§1) SAS cells (JCRB0260) are dispensed into 384-well plates, flat and clear bottom (Greiner, PNr. 781091) at a density of 300 cells per well in 60 μL DMEM:F12 (Gibco 31330-038)+10% Fetal Calf Serum (HyClone, PNr.: SH30084.03) and incubated at 37° C. in a CO2 incubator overnight. The next day, compounds (10 mM stock in DMSO) are added with the ECHO acoustic liquid handler system (Beckman Coulter), including DMSO controls. Plates are incubated for 120 h, and cell viability is measured using CellTiter-Glo luminescent cell viability reagent (Promega product code G7570). Viability (stated as percent of control) is defined as relative luminescence units RLU of each well divided by the RLU of cells in DMSO controls. IC50 values are determined from viability measurements by non-linear regression using a four-parameter model.

SK—CO-1 cells = assay: SK-CO-1 CTG proliferation assay (120 h) (CRC, G12V); details: Homo sapiens, SK-CO-1 proliferation
Description: SK—CO-1 CTG Proliferation Assay (120 h) (CRC, G12V)
as §1, with “SK—CO-1 cells (ATCC” for “SAS cells (JCRB0260)”, “SK—CO-1 cells (ATCC HTB-39) are dispensed” for “SAS cells (JCRB0260) are dispensed”, “density of 500 cells per” for “density of 300 cells per”, “60 μL EMEM (Sigma M5650)+10% Fetal Calf” for “60 μL DMEM:F12 (Gibco 31330-038)+10% Fetal Calf”

LOVO cells = assay: LOVO CTG proliferation assay (120 h) (CRC, G13D); details: Homo sapiens
Description: LOVO CTG Proliferation Assay (120 h) (CRC, G13D)
as §1, with “LOVO cells (ATCC” for “SAS cells (JCRB0260)”, “LOVO cells (ATCC CCL-229) are dispensed” for “SAS cells (JCRB0260) are dispensed”, “density of 1000 cells per” for “density of 300 cells per”, “60 μL DMEM (Sigma D6429)+10% Fetal Calf” for “60 μL DMEM:F12 (Gibco 31330-038)+10% Fetal Calf”

Row | DC50 (KRAS(G12D)) [nM] | Dmax 18 h (KRAS(G12D)) [% Ctrl] | IC50 (NCI-H358 cells) [nM] | IC50 (AsPC-1 cells) [nM] | IC50 (SK—CO-1 cells) [nM] | IC50 (LOVO cells) [nM] | Structure (SMILES) | IC50 (SAS cells) [µM]
1 | 12.9 | 92 | 288 | 470 | 216 | 59.4 | CC(C)C(C(=O)N1C[C@H](O)C[C@H]1C(=O)NCc1ccc(-c2scnc2CO)cc1)c1cc(OCCCCN2CCCN(c3nccc(-c4noc([C@@]5(C)CCCc6sc(N)c(C#N)c65)n4)n3)[C@@H](C)C2)no1 (some centres unmarked) [I-9] | 16.4
2 | 4.1 | 89 | 169 | 435 | 124 | 278 | CC(C)C(C(=O)N1C[C@H](O)C[C@H]1C(=O)NCc1ccc(C#N)c(Cl)c1)c1cc(OCCCCN2CCCN(c3nccc(-c4noc([C@@]5(C)CCCc6sc(N)c(C#N)c65)n4)n3)[C@@H](C)C2)no1 (some centres unmarked) [I-18] | 3.38
3 | 7.6 | 83 |  | 8330 | 507 | 929 | Cc1ncsc1-c1ccc([C@H](CO)NC(=O)[C@@H]2C[C@@H](O)CN2C(=O)C(C(C)C)n2cc(OCCCCN3C[C@H](C)N(c4nccc(-c5noc([C@@]6(C)CCCc7sc(N)c(C#N)c76)n5)n4)CCC3(C)C)nn2)cc1 (some centres unmarked) [I-32] | 9.44
4 | 13.1 | 91 |  | 323 | 1950 | 50 | COC(=O)[C@H](NC(=O)[C@@H]1C[C@@H](O)CN1C(=O)C(C(C)C)n1cc(OCCCCN2CCCN(c3nccc(-c4noc([C@@]5(C)CCCc6sc(N)c(C#N)c65)n4)n3)[C@@H](C)C2)nn1)c1ccc(-c2scnc2C)cc1 (some centres unmarked) [I-33] | 0.0845
